Assay results as given in US5204343A, “5H-benzodiazepin derivative” (Egis Gyogyszergyar, priority 1990, dated 1993).
Entries after “also recorded” stand apart in the source; their conditions may differ.

Experiments:
mice [1] = assay: Behaviour test on mice (method of Irwin); format: in vivo
Source text: The effects of the compound of formula (I) and the reference compound (girisopam) were examined by the method of Irwin [Psychopharmacol. 13, 222 (1968)].

mice [2] = assay: Narcosis potentiating effect on mice (hexobarbital-Na); format: in vivo; details: for Prolongation of narcosis time: hexobarbital-Na 50 mg/kg i.v.
Procedure: The prolongation of the narcosis time was related to the sleeping time of the control group treated with a 50 mg/kg i.v. dose of hexobarbital-Na. The test compound was administered […].

mice [3] = assay: Antiaggressive effect on mice ("fighting behaviour" test of Tedeschi et al.); format: in vivo; details: Mus musculus, confidence limit in separate column
Source text: The antiaggressive effect was examined by the method of Tedeschi et al. (the so-called "fighting behaviour" test) [J. Pharm. Exp. Ther. 25, 28 (1959)].

rats = assay: Anxiolytic effect on rats ("lick-conflict" test of Vogel); format: in vivo; details: for Numbers of shocks tolerated: 50 mg/kg i.p., pretreatment 30 minutes, vehicle 5.7 ± 0.6 (formula (I) series), 5.1 ± 0.9 (girisopam series); for number of tolerated shocks, result in words: same dose (50 mg/kg i.p.)
Procedure: The anxiolytic effect was investigated according to the so-called "lick-conflict" test of Vogel [Psychopharmacol. 21, 1 (1971)]. Time of pretreatment: 30 minutes.

Acute toxicity, mouse = assay: Acute toxicity, mouse; parameters: species or system mouse (male, CFLP strain); details: in vivo, 14 days observation
Procedure: (§1) The experiments were carried out on male mice belonging to the CFLP strain (body weight: 20-22 g) and on male rats belonging to the CFY strain. […] The LD50 values were determined with the aid of the method of Lichtfield and Wilcoxon [J. Pharmacol. Exp. Ther. 96, 99 (1949)]. The compounds were suspended in 2 to 5% Tween 80. The animals were treated in volumes of 0.1 ml/10 g (mice) and 0.5 ml/100 g (rats).

Acute toxicity, rat = assay: Acute toxicity, rat; parameters: species or system rat (male, CFY strain); details: in vivo, ip, 14 days observation
Procedure: as §1

[4] = Acute toxicity, overall statement; format: in vivo; details: vs girisopam
Procedure: as §1

[5] = Anxiolytic, antiaggressive and antidepressant effects, overall statement; format: in vivo; details: vs girisopam
[6] = Muscle relaxant and anticonvulsive effects; details: in vivo
[7] = Pharmacological experiments, overall (spectrum, potency, therapeutical index); format: in vivo; details: vs girisopam
[8] = vs Grandaxin (tofisopam); cited from earlier work

Compound	spontaneous motor activity (SMA) after 60 minutes (mice [1]; 100 mg/kg i.p.)	spontaneous motor activity (SMA) after 120 minutes (mice [1]; 100 mg/kg i.p.)	spontaneous motor activity (SMA) after 180 minutes (mice [1]; 100 mg/kg i.p.)	spontaneous motor activity (SMA) after 60 minutes (mice [1]; 200 mg/kg p.o.)	spontaneous motor activity (SMA) after 120 minutes (mice [1]; 200 mg/kg p.o.)	spontaneous motor activity (SMA) after 180 minutes (mice [1]; 200 mg/kg p.o.)	Prolongation of narcosis time (mice [2]; 25 mg/kg p.o.) [%]	Prolongation of narcosis time (mice [2]; 50 mg/kg p.o.) [%]	ED50 (mice [3]) [mg/kg]	Numbers of shocks tolerated (rats)	number of tolerated shocks, result in words (rats)	LD50 at 336 h (Acute toxicity, mouse; ip) [mg/kg]	LD50 at 336 h (Acute toxicity, mouse; po) [mg/kg]	LD50 at 336 h (Acute toxicity, rat) [mg/kg]	other results
COc1cc2c(cc1OC)C(c1cccc(Cl)c1)=NN=C(CO)C2 [Compound of formula (I), 1-(3-chlorophenyl)-4-hydroxymethyl-7,8-dimethoxy-5H-2,3-benzodiazepine]	SMA.dwnarw.	SMA.dwnarw.	SMA.dwnarw.	SMA.dwnarw.	SMA.dwnarw.	SMA.dwnarw.	232	444	13.8	13.8 ± 3.7	significant increase on the number of tolerated shocks	1310	> 2000	> 1500	decrease of spontaneous motor activity, compared with reference compound (mice [1]; mice, vs girisopam): decreases the spontaneous motor activity on mice to the same degree as the reference compound; Prolongation of narcosis time (mice [2]; 12.5 mg/kg p.o.): 145%; narcosis potentiating activity compared with reference compound (mice [2]; p.o. doses 25 mg/kg and 50 mg/kg, vs girisopam): practically as significant as that of the reference compound (girisopam) or even superior; acute toxicity compared with reference compound [4]: considerably more favourable on both kinds of animals than that of the reference compound; also recorded: their acute toxicity is superior; anxiolytic, antiaggressive and antidepressant effects [5]: as strong anxiolytic, antiaggressive and antidepressant effects as girisopam; muscle relaxant and anticonvulsive effects [6]: do not show muscle relaxant and anticonvulsive effects; spectrum of activity and potency [7]: as favourable as those of the reference compound (girisopam); therapeutical index compared with reference compound [7]: more favourable than the reference compound
COc1cc2c(cc1OC)C(c1cccc(Cl)c1)=NN=C(C)C2 [Girisopam, 1-(3-chlorophenyl)-4-methyl-7,8-dimethoxy-5H-2,3-benzodiazepine, reference compound]	SMA.dwnarw.	SMA.dwnarw.	SMA.dwnarw.	SMA.dwnarw.	SMA.dwnarw.	SMA.dwnarw.	305	392	16	19.0 ± 2.3	significant increase on the number of tolerated shocks	330	1250	670	effectiveness compared with Grandaxin [8]: five times more effective than the latter
